Patent publication EP3685668B1, “COMPOSITION COMPRISING ACIBENZOLAR-S-METHYL AS EFFECTIVE INGREDIENT FOR CONTROLLING BURSAPHELENCHUS XYLOPHILUS DISEASE AND METHOD FOR CONTROLLING BURSAPHELENCHUS XYLOPHILUS USING SAME” (Industry Foundation of Chonnam National University, priority 2017, dated 2019)

Key:
[1] = system: Bursaphelenchus xylophilus; test: Occurrence of pine wilt disease after trunk injection of induced resistance candidate materials, in vivo test in young red pine trees; conditions: red pine tree (Pinus densiflora), 30 days after inoculation; for Occurrence rate of pine wilt disease: Number of pine trees showing wilt symptoms / Number of pine trees used for the test: trunk injection 100 µℓ per tree; for Number of pine trees showing wilt symptoms only at growing points of a stem: trunk injection
Procedure: By using the 15 types of an induced resistance elicitors which have been known to induce the plant resistance against various diseases as candidates, their controlling effect against pine wilt disease was examined. The control efficacy of candidates against pine wilt disease was analyzed according to an in vivo test using red pine tree (Pinus densiflora) which was 2-year old young pine trees (diameter of 5.5 mm or so, and height of about 35 mm).
As a candidate group of an induced resistance material, two kinds of acibenzolar-S-methyl (ASM), TDL (Tiadinil), ITL (Isotianil), PBZ (Probenzole), AZO (Azoxystrobin), VMA (Validamycin A), MeJA (Methyl jasmonate), BABA (DL-3-aminobutyric acid), 2,3-BDO (2,3-Butanediol), SA (salicyclic acid), GABA (r-Aminobutyric acid), glucan (Glucan), ER (Ergosterol), and AZA (Azelaic acid) were used. Only the use of acibenzolar-S-methyl is according to the invention. Injection of the chemicals was carried out by trunk injection method, i.e., at an angle of 45°, a borehole was created by using an electric drill with thickness of 1.5 mm on a pine stem part that is 5 to 10 cm above the soil surface, a tip (200 µℓ) was inserted to the hole, and, after dissolving the candidate material at concentration level of 200, 20, or 2 µg/mℓ in each solvent, the solution was injected in an amount of 100 µℓ per pine tree. After the injection of the chemical agent, the end part of the tip was sealed with parafilm.
The pine tree wilt nematodes (Bursaphelenchus xylophilus, National Institute of Forest Science (NIFoS), South Korea) was incubated at 25°C by feeding them with Botrytis cinerea, which have been cultured on a potato dextrose agar (PDA) medium, and after one week incubation, they were collected by Baermann funnel method and were adjusted to the level of 20,000 worms/mℓ by examining the number of the worms under an optical microscope. One week after the chemical treatment, the inoculation of the pine tree wilt nematodes was carried out by tree barking inoculation of 100 µℓ, i.e., 2,000 worms, per tree, and the result was determined 30 days after the inoculation. […] [Table 1] Occurrence rate of pine wilt disease in candidate group of induced resistance materials

Cytochrome_P450 = test: qRT-PCR expression of induced resistance gene in pine tree callus; format: cell-based; conditions: 200 µg/mℓ, 24 hours
Procedure: For in vitro analysis of induced resistance, the expression of PR genes and other plant defense-related genes was determined, which are evolved in various defense mechanisms including induced resistance. The primers of sixteen induced resistance-related genes of pine tree used in this invention were listed in the below and elongation factor_1 alpha were used as a reference gene. […] The primer list of defense resistance-related genes
After the treatment with 200 µg / mℓ of candidates of the selected induced resistance material, expression of the induced resistance-related gene in pine callus was determined by qRT-PCR using the primer pairs of defense resistance-related genes in Table 4. As a candidate group of an induced resistance material in pine tree, acibenzolar-S-methyl (ASM), TDL (Tiadinil), ITL (Isotianil), PBZ (Probenzole), AZO (Azoxystrobin), VMA (Validamycin A), MeJA (Methyl jasmonate), BABA (DL-3-aminobutyric acid), 2,3-BDO (2,3-Butanediol), GABA (r-Aminobutyric acid), glucan (Glucan), ER (Ergosterol), and AZA (Azelaic acid) were used. For the in vitro analysis of the expression of induced resistance gene in pine callus, the selected induced resistance materials were applied with 500 µℓ of LM liquid medium on a surface of pine tree callus (100 mg) in 12-well microplate to give final concentration of 200 µg/mℓ. Then, the callus surface was sufficiently reacted for 24 hours with the candidate of pine tree induced resistance material by shaking at 50 rpm in a 25 °C shaking incubator under dark condition. RNAs were extracted from the callus after completion of the reaction with an induced resistance material, followed by synthesis of cDNAs. Then, by carrying out qRT-PCR, the expression of induced resistance genes was determined.
Thus, the following tests were carried out using acibenzolar-S-methyl only. Expression of the induced resistance genes at different culture time after the chemical treatment was examined. For the in vitro assay, LM medium containing pine tree callus was treated with acibenzolar-S-methyl at concentration of 200 µg / mℓ, followed by reaction for 1 day, 7 days, or 14 days in a 25°C shaking incubator under dark condition. RNAs were extracted from the callus after the reaction followed by synthesis of cDNAs. Then, by carrying out qRT-PCR, the expression of the induced resistance genes was determined. Depending on reaction time after the treatment, i.e., after 1 day, 7 days, or 14 days, the expression of the obtained induced resistance genes was examined. […]
For the surface treatment (spraying treatment) of pine tree callus, 100 mg of the pine tree callus were dunked in 500 µℓ LM liquid medium and 500 µℓ of 400 µg/mℓ acibenzolar-S-methyl were sprayed (i.e., sprayed 5 times, 100 µℓ for each spraying, 200 µg/mℓ) on the callus surface. Then, the pine callus sprayed with acibenzolar-S-methyl was reacted for 24 hours by shaking at 50 rpm in a 25°C shaking incubator under dark condition. After the completion of the 24-hour reaction, RNAs were extracted from the callus followed by synthesis of cDNAs. Then, by carrying out qRT-PCR, expression of the induced resistance gene was determined.

OCC1=C[C@@H](N[C@H]2C[C@H](CO)[C@@H](O[C@H]3O[C@@H](CO)[C@H](O)[C@@H](O)[C@@H]3O)[C@H](O)[C@H]2O)[C@H](O)[C@@H](O)[C@@H]1O [VMA, Validamycin A]
Occurrence rate of pine wilt disease: Number of pine trees showing wilt symptoms / Number of pine trees used for the test ([1]; 2 µg/mℓ): 2/3
Occurrence rate of pine wilt disease: Number of pine trees showing wilt symptoms / Number of pine trees used for the test ([1]; 20 µg/mℓ): 1/3
Occurrence rate of pine wilt disease: Number of pine trees showing wilt symptoms / Number of pine trees used for the test ([1]; 200 µg/mℓ): 2/3
Number of pine trees showing wilt symptoms only at growing points of a stem ([1]; 2 µg/mℓ): 2
Number of pine trees showing wilt symptoms only at growing points of a stem ([1]; 20 µg/mℓ): 1
Number of pine trees showing wilt symptoms only at growing points of a stem ([1]; 200 µg/mℓ): 1
Expression of induced resistance gene, Cytochrome_P450 (Cytochrome_P450): 1.17
